Our source for the melting point values is a melting point compilation (Tetko et al.; mined from patent text by program, amines drawn as free bases though some values may be those of a salt).

Each structure is given as a SMILES string.

As for `O=c1c(OCc2nnn[nH]2)coc2ccccc12`, the melting point (in general, the temperature of the solid-liquid transition) was in the range of 194 to 196 °C.
In the case of `CCCCOc1ccc(NC(=O)c2cnc(C(=O)NCC(=O)OCC)c(Cl)c2)cc1`, the melting point was in the range of 177 to 179 °C.
For `Cn1nc2nnsc2c1C#N` the value was 111 to 114 °C.
For `NC(=O)c1cccc(Nc2ccncc2)c1` the value was 201 to 203 °C; for `CC(=O)Oc1cccc2oc(C(=O)OCc3ccc(Cl)cc3)c(C)c12`, 95 to 100 °C.
The molecule `Oc1cccc(/C=C/c2nc3ccccc3s2)c1` registered a melting point of 210 to 211 °C.
`CCCCOc1c(N(C)C(=O)OC(C)(C)C)n(CC(C)(C)C)c(=O)c2ccc(O)cc12` registered a melting point of 196 to 197 °C.
The result for `O=C(Nc1nnc[nH]1)c1ccc2ccccc2c1` reads 191 to 192 °C; that for `O=c1oc2c(c(O)c1C(c1ccccc1)C1CC1)CCCCCCCC2` (stereo unspecified), 87.6 to 90.4 °C.
The result for `Cc1ccc(S(=O)(=O)NCCCN(CCN(CCCNS(=O)(=O)c2ccc(C)cc2)S(=O)(=O)c2ccc(C)cc2)S(=O)(=O)c2ccc(C)cc2)cc1` reads 141 to 142 °C.
For the molecule `CCCCCCCCCCCCCCCCCCOc1ccc(OCc2ccccc2)c(C(=O)O)c1`, the melting point lay within 80 to 81 °C.
`CCOC(=O)c1nc(N)sc1-c1cn2c(C)cccc2n1` gave a melting point of 234 to 236 °C.
On to `Clc1ccc(C2CNCCN2)cc1Cl` (stereo unspecified), for which the melting point lay in the range of 74 to 76 °C.
The result for `Cc1cc(Oc2ccc(N)cc2)ccc1-c1ccc(Oc2ccc(N)cc2)cc1C` reads 140 °C.
For `CC1(C)SC(c2ccccc2OCCO[N+](=O)[O-])NC1C(=O)O` (stereo unspecified) the value was 98 to 101 °C; for `O=C1Cc2cccc(Oc3ccccc3)c2O1`, 60 to 61 °C.
For `CC1(C)OC(=O)c2ccc(CO)cc21` the value was 59 to 63 °C; for `COc1ccc2cc(C(C)=O)cc(F)c2c1`, 96 to 97 °C; for `c1ccc(CN2CCN(CCCCc3c[nH]c4ccc(-n5cnnc5)cc34)CC2)nc1`, 115 to 118 °C.
On to `CCOc1nc(=O)n(C(=O)NC)s1`, for which the melting point was 152 °C.
For `CCOC(=O)c1cccn2cc(C)nc12` the value was 62 to 64 °C; for `CCN1C(=O)CCCc2cc(Nc3ncc(Cl)c(Nc4c(F)cccc4C(=O)NC)n3)c(OC)cc21`, 254 to 256 °C.
The result for `CC(C)=C1C(=O)N(c2ccc(Cc3ccc(N)cc3)cc2)C(=O)/C1=C(\C)c1cc(-c2ccccc2)sc1C` reads 82 to 94 °C; that for `C#CCOc1cccc(CCCCCCCCCCCCCCC)c1`, 26 to 27 °C; that for `O=C(NCc1ccn(-c2cc3nc(C(=O)O)c(=O)[nH]c3cc2C(F)(F)F)c1)Nc1cccc(F)c1`, 169 to 171 °C.
For `COCOCC1Oc2c(OC)cccc2C1=O` (stereo unspecified) the value was 71 to 72 °C; for `Cc1cccc(-n2nc(C)cc2N)n1`, 149 to 150 °C; for `CS(=O)(=O)Oc1ccc(S)cc1`, 66 to 68 °C.
In turn, `COC(=O)c1cc(C)cnc1Cl` yielded a melting point of 31 to 33 °C.
For `O=C(Nc1ccc(-n2nc(C(F)(F)F)cc2C(F)(F)F)cc1)c1nc(Cl)ccc1Cl` the value was 118 to 119 °C.
The result for `Cc1cc(Cl)cc(COc2cccc(OCc3ccc4cc(F)ccc4n3)c2)c1OCC(=O)O` reads 140 to 141 °C.
The result for `CC(c1cc(C(C)(C)C)c(O)c(C(C)(C)C)c1)N(O)C(N)=O` (stereo unspecified) reads 162 to 164 °C; that for `CCOc1ccc(C=NOCCO)cn1`, 52 to 54 °C.
As for `CCOc1nc(N)c2ncn(C3C=CCCC3)c2n1` (stereo unspecified), the melting point was in the range of 67 to 72 °C.
For `COc1ccc(NC(=O)c2ccccc2)cc1NC(=S)Nc1cc(Cl)cc(Cl)c1` the value was 194 to 195 °C.
`CC(=O)Nc1ccc(C(=O)c2cc(-c3ccncc3)c(N3CCOCC3)s2)cc1` showed a melting point of 139 °C.
`CC(C)Cn1cnc2c(C(N)=O)nc3ccccc3c21` gave a melting point of 225 to 226 °C.
For `CCCCn1c(=O)c2c(ncn2S(=O)(=O)c2ccc(OC)c(OC)c2)n(CCCC)c1=O` the value was 134 to 135 °C; for `O=C1C(=Cc2cccc(OCCCCl)c2)Cc2ccccc21`, 73 to 75 °C.
The result for `Cc1oc(-c2ccco2)nc1CCOc1ccc(CC2SC(=O)NC2=O)cn1` (stereo unspecified) reads 160 to 162 °C.
For `C#CCn1nnnc1SC(c1ccccc1)c1ccccc1` the value was 92 °C.
In the case of `Cc1cc(NCCO)c2[nH]nc(C)c2n1`, the melting point was in the range of 225 to 230 °C.
For `O=C1c2cccc3c(Cl)ccc(c23)C(=O)N1CCN1CCC(c2noc3cc(F)ccc23)CC1` the value was 207 to 209 °C.
`CCOC(=O)N1CC=C(c2cc(F)c(Br)cc2F)CC1` showed a melting point of 40 to 44 °C.
For `COc1ccccc1CN[C@H]1CCCN[C@H]1c1ccsc1` (relative stereo) the value was more than 239 °C.
The result for `Cc1cc([N+](=O)[O-])c(NC(C)C)c([N+](=O)[O-])c1C` reads 69 to 70 °C.
The result for `Cc1cc2c(c(C)c1NC(=O)CC(C)(C)C)C(c1ccccc1)CO2` (stereo unspecified) reads 158 to 159 °C; that for `CNC(C)=C(C(C)=O)S(=O)(=O)NC(=O)Nc1nc(C)cc(C)n1`, 192 °C; that for `CCCS(=O)(=O)c1cc([C@H]2CC[C@H](c3cc(OC)c(OC)c(OC)c3)O2)cc(OC)c1OCCSc1ccc(N(C)C)cc1` (relative stereo), 113 to 115 °C.
`CCNC(=S)n1nc(Oc2c(F)cc(C(F)(F)F)cc2Cl)cc1C` displayed a melting point of 114 to 115 °C.
For `C[C@H](NC(=O)CC#N)C(=O)N1CCC[C@H]1C(=O)Nc1ccccc1` the value was 183 to 184 °C; for `CCOP(=O)(O)Cc1ccc(NC(=O)CCc2cnoc2-c2ccccc2)cc1`, 80 to 82 °C; for `CCOC(=O)c1nn(-c2ccc(CP(=O)(OCC)OCC)cc2)nc1C`, 60 to 62 °C.
For `CON=C(C(=O)O)c1csc(NC(=O)CCl)n1` the value was 182 to 183 °C; for `O=C1OCCN1CCn1ccnc1[N+](=O)[O-]`, 103 to 104 °C; for `COCc1nc(OC)c(NS(=O)(=O)c2cccc(Cl)c2Cl)nc1Cl`, 193 to 196 °C.
For `O=C1c2ccccc2C(=O)c2c1c(O)c1ccccc1c2O` the value was 214 to 216 °C.
In turn, `Cc1nc(-c2ccc(OCC(F)(F)C(F)F)cc2)sc1C(=O)O` registered a melting point of 167 to 168 °C.
`Clc1nccc2cc(Br)ccc12` registered a melting point of 103 to 104 °C.
The result for `CCC/C=C/S(=O)(=O)NC(=O)c1ccc2nc(C)n(Cc3ccc(N(C)C(=O)OCC)cc3Cl)c2n1` reads 165 to 166 °C; that for `OC(c1ccc(F)cc1)(c1ccc(F)cc1)c1ncc[nH]1`, 198 to 200 °C; that for `Nc1ccc2nccn2n1`, 198 to 202 °C.
For `N#Cc1cc(F)cc2c1OCCC21SC(=O)NC1=O` (stereo unspecified) the value was 230 to 232 °C; for `OCc1ccc(C=Cc2csc3ccccc23)s1`, 68 to 70 °C.
For `N#Cc1ccccc1C(F)(F)C(F)(F)c1ccccc1` the value was 84 to 86 °C.
In the case of `CCOC(=O)C1=C(C)NC(C)=C(C(=O)OCC)C1c1ccc(-n2ccnc2)cc1`, the melting point was 231 to 233 °C.
The result for `CC1CCCC(C)N1Cc1ccc2cc(NC(=O)c3ccc(-c4ccccc4)cc3)ccc2n1` (stereo unspecified) reads 180 to 181 °C; that for `CCCCCCC(c1nccn1C)n1cnc2cc(-c3ccccc3-c3nn[nH]n3)ccc21` (stereo unspecified), 88 to 93 °C.
The result for `CCC1CC(=O)N(Cc2ccc(NC(=O)C(C)(C)C)cc2)N=C1c1ccc(OC)c(OC)c1` (stereo unspecified) reads 117 °C; that for `CCOC(=O)C1C(=O)NC(=O)C12C(=O)N(Cc1ccc(Cl)c(Cl)c1)c1ccccc12` (stereo unspecified), 60 to 85 °C; that for `CCCCCCCCCCCCCCCCSCC(CNS(=O)(=O)CCCCl)NC(=O)OC(C)(C)C` (stereo unspecified), 100 to 102 °C.
The result for `O=C(O)C1CCN(c2ncc(NS(=O)(=O)c3ccc(Br)cc3)c(NCc3ccccc3)n2)CC1` reads 136 to 138 °C; that for `Cc1ccccc1-c1cccc(C(=O)O)c1`, 127 °C.
`CCC(=NOC)C(=NO)C(=O)NC`: the melting point was in the range of 168 to 170 °C.
For `CCOC(=O)c1c(Cl)nc2cc(Cl)c(F)cc2c1CCl` the value was more than 250 °C; for `CC12CCC3c4ccc(C(=O)O)cc4CCC3C1CCC2C(=O)CCc1ccc(O)cc1` (stereo unspecified), 197 °C.
For `COc1ccc2c(c1)C1(CCCC1)C(O)(CC#N)CC2` (stereo unspecified) the value was 126 to 127 °C; for `O=C(c1ccncc1)N1CCC(=C2c3ccccc3CCn3ccnc32)CC1`, 207 to 209 °C; for `COc1ccc(C(=O)CCC(=O)c2ccc(OC)c(OC)c2)cc1OC`, 181 to 182 °C.
For `COCc1oc(C)cc(=O)c1OCc1ccccc1` the value was 30 to 32 °C; for `CCC(C)(C)c1cc(-c2c[nH]c(C=C3SC(N4CCOCC4)=NC3=O)c2)ccc1O`, 314 °C; for `O=[N+]([O-])c1cccc(Oc2cccc3cccnc23)c1`, 133 to 134 °C.
For `O=C(NCCO)c1cccc(-c2cccc3nn(Cc4cccc(Cl)c4)cc23)c1`, the melting point was in the range of 202 to 203 °C.
For `CN(C)C(=O)c1cn(C)c(=O)cc1Nc1ccc(I)cc1F` the value was 106 to 111 °C; for `Cn1nc2ccc(Cl)nn2c1=O`, 176 to 177 °C.
The result for `O=C(O)c1ccc(C2(C(=O)Oc3ccc(C(=O)NO)cc3)CCCCC2)cc1` reads 169 to 170 °C; that for `COc1ccc2ccc3c(c2c1)C=C(C#N)CO3`, 134 °C.
For `COc1cn(-c2cc3c(cc2F)OC(F)(F)C(F)(F)O3)nc(-c2ccnn2-c2ccccc2)c1=O` the value was 192 to 194 °C; for `CCCn1c2c(c3c4c(-c5ccccc5)csc4ccc31)CN(C)CC2`, 156 °C; for `COc1ccc2c(c1)C=C(C(=O)NCCCCN1CCN(c3ccccc3OC)CC1)CO2`, 165 °C.
`CC1(C)NC(=O)N(c2ccc(C#N)c(C(F)(F)F)c2)C1=N` had a melting point of 228 °C.
